This note sets out measurements from ChEMBL document CHEMBL5291721, “A preclinical secondary pharmacology resource illuminates target-adverse drug reaction associations of marketed drugs” (Nat Commun, 2023).

In assay [1] the target is T1, Prostaglandin G/H synthase 1 (Homo sapiens, UniProt P23219). Type of assay: functional.
The target in the next assay is D(1A) dopamine receptor (Homo sapiens, UniProt P21728).
Assay [2] addresses 5-hydroxytryptamine receptor 2B (Homo sapiens, UniProt P41595). Format: functional, cell-based.
Assay [3] has as its target T2, Muscarinic acetylcholine receptor M2 (Homo sapiens, UniProt P08172).
T2 sequence (P08172 whole entry): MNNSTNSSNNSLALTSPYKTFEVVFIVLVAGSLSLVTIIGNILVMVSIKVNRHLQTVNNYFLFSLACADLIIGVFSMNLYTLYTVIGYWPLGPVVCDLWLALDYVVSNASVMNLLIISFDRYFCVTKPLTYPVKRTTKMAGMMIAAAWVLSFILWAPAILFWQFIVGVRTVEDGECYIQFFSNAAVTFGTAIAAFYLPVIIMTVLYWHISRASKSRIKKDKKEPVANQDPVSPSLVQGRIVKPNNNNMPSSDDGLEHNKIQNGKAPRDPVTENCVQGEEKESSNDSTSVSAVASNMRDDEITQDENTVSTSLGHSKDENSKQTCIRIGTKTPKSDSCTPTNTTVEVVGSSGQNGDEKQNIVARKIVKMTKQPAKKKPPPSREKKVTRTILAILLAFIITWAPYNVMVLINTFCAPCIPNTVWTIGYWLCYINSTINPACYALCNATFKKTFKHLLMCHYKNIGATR

Assay [4] concerns the target T3, Alpha-1A adrenergic receptor (Homo sapiens, UniProt P35348).
T3 sequence (P35348 whole entry): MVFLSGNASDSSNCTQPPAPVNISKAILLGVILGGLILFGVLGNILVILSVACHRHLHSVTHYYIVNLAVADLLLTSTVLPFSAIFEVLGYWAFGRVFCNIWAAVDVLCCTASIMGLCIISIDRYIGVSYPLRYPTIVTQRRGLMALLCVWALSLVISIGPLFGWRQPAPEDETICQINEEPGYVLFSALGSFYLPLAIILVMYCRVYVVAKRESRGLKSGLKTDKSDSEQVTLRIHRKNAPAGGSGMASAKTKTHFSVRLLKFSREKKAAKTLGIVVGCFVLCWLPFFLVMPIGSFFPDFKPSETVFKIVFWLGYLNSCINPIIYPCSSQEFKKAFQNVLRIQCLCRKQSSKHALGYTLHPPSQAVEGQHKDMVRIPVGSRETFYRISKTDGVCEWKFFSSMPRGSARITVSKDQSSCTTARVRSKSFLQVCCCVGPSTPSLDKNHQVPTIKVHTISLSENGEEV
Type of assay: functional, cell-based.

Another assay deals with Histamine H3 receptor (Homo sapiens, UniProt Q9Y5N1).
Histamine H3 receptor, sequence (Q9Y5N1 whole entry): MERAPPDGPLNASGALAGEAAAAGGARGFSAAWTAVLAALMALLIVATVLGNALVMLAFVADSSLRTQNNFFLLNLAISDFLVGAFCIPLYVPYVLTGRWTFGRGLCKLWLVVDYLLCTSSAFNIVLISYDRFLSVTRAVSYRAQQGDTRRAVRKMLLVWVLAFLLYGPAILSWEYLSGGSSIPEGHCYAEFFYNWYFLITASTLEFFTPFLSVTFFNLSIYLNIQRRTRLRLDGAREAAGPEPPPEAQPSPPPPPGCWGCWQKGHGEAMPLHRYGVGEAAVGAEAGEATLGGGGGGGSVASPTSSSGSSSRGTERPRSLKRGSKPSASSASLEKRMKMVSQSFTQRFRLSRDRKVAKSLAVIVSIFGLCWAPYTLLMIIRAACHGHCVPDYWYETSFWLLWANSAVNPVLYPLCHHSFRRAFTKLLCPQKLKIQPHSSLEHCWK
For assay [5], the target named is T4, 5-hydroxytryptamine receptor 1A (Homo sapiens, UniProt P08908).
T4 sequence (P08908 whole entry): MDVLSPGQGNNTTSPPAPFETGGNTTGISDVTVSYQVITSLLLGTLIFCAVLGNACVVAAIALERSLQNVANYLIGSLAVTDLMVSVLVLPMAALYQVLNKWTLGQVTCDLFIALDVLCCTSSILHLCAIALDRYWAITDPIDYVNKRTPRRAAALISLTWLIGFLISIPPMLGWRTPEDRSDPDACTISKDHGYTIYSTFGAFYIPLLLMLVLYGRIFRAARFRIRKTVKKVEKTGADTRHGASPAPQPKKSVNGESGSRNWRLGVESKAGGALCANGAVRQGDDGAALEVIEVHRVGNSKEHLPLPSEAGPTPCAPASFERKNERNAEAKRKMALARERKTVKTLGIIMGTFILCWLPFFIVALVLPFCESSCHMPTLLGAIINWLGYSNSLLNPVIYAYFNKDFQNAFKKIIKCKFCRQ

Assay [6] deals with T5, Amine oxidase [flavin-containing] A (Homo sapiens, UniProt P21397).
T5 sequence (P21397 whole entry): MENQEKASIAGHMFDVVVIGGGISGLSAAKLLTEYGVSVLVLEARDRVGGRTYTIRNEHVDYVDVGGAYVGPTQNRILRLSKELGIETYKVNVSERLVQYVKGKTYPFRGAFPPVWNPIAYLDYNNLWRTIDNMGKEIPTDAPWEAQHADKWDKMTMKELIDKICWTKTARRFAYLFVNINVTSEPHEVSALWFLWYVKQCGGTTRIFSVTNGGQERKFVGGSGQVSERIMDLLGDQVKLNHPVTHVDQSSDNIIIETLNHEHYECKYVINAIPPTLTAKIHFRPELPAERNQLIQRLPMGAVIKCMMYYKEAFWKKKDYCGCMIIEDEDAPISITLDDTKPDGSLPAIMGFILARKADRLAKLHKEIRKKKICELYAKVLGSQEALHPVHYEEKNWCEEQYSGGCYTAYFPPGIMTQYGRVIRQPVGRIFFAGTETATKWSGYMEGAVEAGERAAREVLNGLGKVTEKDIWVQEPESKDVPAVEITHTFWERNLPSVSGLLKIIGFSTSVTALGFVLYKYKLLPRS
Format: functional.

The target of assay [7] is T1, Prostaglandin G/H synthase 1. Format: functional. This is another data set of the same source.
Assay [8] has as its target Sodium-dependent serotonin transporter (Homo sapiens, UniProt P31645).
Further: assay procedure not described here.

5-hydroxytryptamine receptor 2B, sequence (P41595 whole entry): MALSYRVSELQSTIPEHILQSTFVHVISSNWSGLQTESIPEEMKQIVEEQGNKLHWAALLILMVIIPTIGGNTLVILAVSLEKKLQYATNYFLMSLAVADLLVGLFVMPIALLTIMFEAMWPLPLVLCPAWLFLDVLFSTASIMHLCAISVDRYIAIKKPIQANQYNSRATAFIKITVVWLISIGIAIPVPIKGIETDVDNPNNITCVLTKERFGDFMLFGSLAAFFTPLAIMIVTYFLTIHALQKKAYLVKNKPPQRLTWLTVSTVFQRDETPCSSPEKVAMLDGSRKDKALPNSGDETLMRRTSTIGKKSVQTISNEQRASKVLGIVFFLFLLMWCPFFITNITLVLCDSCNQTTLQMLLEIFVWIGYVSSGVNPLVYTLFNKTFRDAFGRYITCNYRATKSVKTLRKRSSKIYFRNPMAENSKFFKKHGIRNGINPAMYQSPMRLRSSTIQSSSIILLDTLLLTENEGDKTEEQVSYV
Sodium-dependent serotonin transporter, sequence (P31645 whole entry): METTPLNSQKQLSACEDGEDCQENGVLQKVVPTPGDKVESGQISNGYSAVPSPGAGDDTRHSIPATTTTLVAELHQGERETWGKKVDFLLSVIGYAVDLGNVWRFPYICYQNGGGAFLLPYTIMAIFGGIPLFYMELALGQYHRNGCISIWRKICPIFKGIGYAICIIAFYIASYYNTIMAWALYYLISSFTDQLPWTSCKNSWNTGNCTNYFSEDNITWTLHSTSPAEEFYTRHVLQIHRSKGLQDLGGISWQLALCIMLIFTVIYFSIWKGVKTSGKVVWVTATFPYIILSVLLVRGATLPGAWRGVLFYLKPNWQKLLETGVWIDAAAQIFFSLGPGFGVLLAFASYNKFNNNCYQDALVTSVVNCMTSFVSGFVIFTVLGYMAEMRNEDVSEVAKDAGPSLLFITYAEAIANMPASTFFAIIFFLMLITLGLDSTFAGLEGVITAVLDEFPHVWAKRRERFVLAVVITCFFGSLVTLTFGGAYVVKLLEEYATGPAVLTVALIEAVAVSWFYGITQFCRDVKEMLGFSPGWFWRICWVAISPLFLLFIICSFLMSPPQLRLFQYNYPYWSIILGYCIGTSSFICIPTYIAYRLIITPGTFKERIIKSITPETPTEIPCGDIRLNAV
D(1A) dopamine receptor, sequence (P21728 whole entry): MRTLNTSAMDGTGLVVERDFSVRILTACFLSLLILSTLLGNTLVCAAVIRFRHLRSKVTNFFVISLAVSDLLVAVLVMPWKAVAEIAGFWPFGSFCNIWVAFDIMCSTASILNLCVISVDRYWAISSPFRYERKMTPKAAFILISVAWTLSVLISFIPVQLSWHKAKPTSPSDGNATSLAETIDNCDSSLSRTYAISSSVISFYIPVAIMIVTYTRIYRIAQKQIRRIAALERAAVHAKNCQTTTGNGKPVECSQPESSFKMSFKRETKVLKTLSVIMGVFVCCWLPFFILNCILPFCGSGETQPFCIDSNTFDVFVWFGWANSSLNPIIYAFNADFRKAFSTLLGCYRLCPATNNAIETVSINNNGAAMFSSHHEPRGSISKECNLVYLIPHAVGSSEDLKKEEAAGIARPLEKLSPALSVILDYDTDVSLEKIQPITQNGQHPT
T1 sequence (P23219 whole entry): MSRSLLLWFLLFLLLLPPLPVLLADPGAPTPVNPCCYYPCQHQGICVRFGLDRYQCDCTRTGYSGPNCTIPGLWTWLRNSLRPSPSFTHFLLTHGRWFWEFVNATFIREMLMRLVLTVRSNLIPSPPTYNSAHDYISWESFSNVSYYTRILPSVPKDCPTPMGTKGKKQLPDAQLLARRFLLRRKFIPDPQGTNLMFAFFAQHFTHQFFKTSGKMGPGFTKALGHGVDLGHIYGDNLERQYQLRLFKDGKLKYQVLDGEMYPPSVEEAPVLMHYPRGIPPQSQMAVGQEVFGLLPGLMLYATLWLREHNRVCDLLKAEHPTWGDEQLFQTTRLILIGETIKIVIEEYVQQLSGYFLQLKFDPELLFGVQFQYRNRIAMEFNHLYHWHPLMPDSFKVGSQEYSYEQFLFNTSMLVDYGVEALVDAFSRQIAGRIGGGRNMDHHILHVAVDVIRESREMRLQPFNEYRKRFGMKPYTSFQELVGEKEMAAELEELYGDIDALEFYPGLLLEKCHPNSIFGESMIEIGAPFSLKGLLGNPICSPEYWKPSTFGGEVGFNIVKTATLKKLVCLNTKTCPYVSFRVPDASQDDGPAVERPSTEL

For `O=C(O)c1cc(O)ccc1O` [GENTISIC ACID], the AC50 (in [1]; at D(1A) dopamine receptor; in assay [2]; in [3]; in [4]; on Histamine H3 receptor) was greater than 30 µM throughout. Also, the AC50 in assay [5], in assay [6], in assay [7] and in assay [8] was greater than 30 µM each time.

Regarding `OCCN1C[C@H](O)[C@@H](O)[C@H](O)[C@H]1CO` [MIGLITOL], the AC50 (in [1]; at D(1A) dopamine receptor; in assay [2]; in assay [3]; in assay [4]; on Histamine H3 receptor) was greater than 30 µM throughout. Besides, the AC50 in [5], in [6], in [7] and in assay [8] was greater than 30 µM each time.

Take `CCC(=O)NCC[C@@H]1CCc2ccc3c(c21)CCO3` [RAMELTEON]: the AC50 (in assay [1]; on D(1A) dopamine receptor; in assay [2]; in assay [3]; in [4]; on Histamine H3 receptor) was greater than 30 µM each time. The AC50 in [5], in assay [6], in assay [7] and in [8] was greater than 30 µM each time.

Take `CCCCCCOc1nsnc1C1=CCCN(C)C1` [XANOMELINE]: the AC50 in [1] was greater than 30 µM; on D(1A) dopamine receptor it was 1.22 µM; in assay [2], greater than 30 µM; on Histamine H3 receptor it was 3.6 µM; in [5], 0.243 µM; in assay [7], greater than 30 µM. This molecule came in with an AC50 in assay [8] of 18.5 µM.

As to `CN(C)CCN1C(=O)c2ccccc2N(C)c2ccccc21` [DIBENZEPIN], the AC50 in assay [1] is greater than 30 µM; on D(1A) dopamine receptor it was 14.3 µM; in assay [2] it was greater than 30 µM; in assay [3], 2.62 µM; on Histamine H3 receptor, greater than 30 µM; in [5] it was 0.306 µM. For the same molecule, the AC50 in [6] is greater than 30 µM; in assay [7] it was greater than 30 µM; in assay [8], 1.32 µM.

Take `CCc1oc2ccccc2c1C(=O)c1cc(I)c(O)c(I)c1` [BENZIODARONE]: the AC50 is 29.8 µM in [1]; 10 µM on D(1A) dopamine receptor; greater than 30 µM in assay [2]; greater than 30 µM in [3]; 28.3 µM on Histamine H3 receptor; 12.4 µM in assay [5]. Also, the half-maximal activity concentration (AC50) in [6] is greater than 30 µM; in assay [7], 8.33 µM; in assay [8] it was greater than 30 µM.

Consider `O=C(CCNNC(=O)c1ccncc1)NCc1ccccc1` [NIALAMIDE], for which the AC50 was 1.65 µM in [1]; greater than 30 µM on D(1A) dopamine receptor; greater than 30 µM in [2]; greater than 30 µM in [3]; greater than 30 µM in [4]; greater than 30 µM at Histamine H3 receptor. The AC50 in assay [5] was greater than 30 µM; in assay [6] it was greater than 30 µM; in assay [7], 8.28 µM; in [8], greater than 30 µM.

For the molecule `CC[N+]1(C)[C@@H]2CC(OC(=O)[C@H](CO)c3ccccc3)C[C@H]1[C@@H]1O[C@@H]12` (some centres undefined) [OXITROPIUM], the AC50 in assay [1] is greater than 30 µM; on D(1A) dopamine receptor, greater than 30 µM; in assay [2], greater than 30 µM; in assay [3], 0.003 µM; in assay [4] it was greater than 30 µM; on Histamine H3 receptor it was greater than 30 µM. The AC50 in assay [5], in [6], in assay [7] and in assay [8] was greater than 30 µM in each case.

In the case of `CC(C)Nc1ncccn1` [ISAXONINE], the AC50 (in assay [1]; on D(1A) dopamine receptor; in assay [2]; in assay [3]; in assay [4]; at Histamine H3 receptor) was greater than 30 µM throughout. In addition, the AC50 in assay [5], in assay [6], in assay [7] and in assay [8] was greater than 30 µM throughout.

As to `CC(=O)N[C@@H]1[C@@H](O)[C@H](O)[C@@H](CO)O[C@H]1O` [N-ACETYLGLUCOSAMINE], the AC50 (in assay [1]; on D(1A) dopamine receptor; in [2]; in [3]; in assay [4]; on Histamine H3 receptor) was greater than 30 µM each time. The AC50 in assay [5], in assay [6], in assay [7] and in [8] was greater than 30 µM throughout.

Consider `CN(C)S(=O)(=O)c1ccc2c(c1)N(CCCN1CCC(CCO)CC1)c1ccccc1S2` [PIPOTIAZINE], for which the AC50 is greater than 30 µM in [1]; 0.0201 µM on D(1A) dopamine receptor; greater than 30 µM in assay [2]; 1.72 µM in assay [3]; 0.0032 µM in assay [4]; greater than 30 µM at Histamine H3 receptor. For the same molecule, the AC50 in [5] is 0.32 µM; in [6] it was greater than 30 µM; in assay [7], greater than 30 µM; in assay [8] it was greater than 30 µM.

For `Oc1c(Cl)cc(Cl)c2cccnc12` [CHLOROXINE], the AC50 (in [1]; at D(1A) dopamine receptor; in assay [2]; in assay [3]; in assay [4]; at Histamine H3 receptor) was greater than 30 µM each time. Besides, the AC50 in assay [5] was 17.2 µM; in [6], greater than 30 µM; in [7] it was greater than 0.3 µM; in assay [8], greater than 30 µM.

Turning to `N[C@H](C(=O)O)[C@H](O)c1ccc(O)c(O)c1` [DROXIDOPA], the AC50 in assay [1] is 17.8 µM; on D(1A) dopamine receptor, greater than 30 µM; in [2], greater than 30 µM; in assay [3], greater than 30 µM; on Histamine H3 receptor, greater than 30 µM; in [5], greater than 30 µM. Besides, the AC50 in [6], in assay [7] and in assay [8] was greater than 30 µM each time.

In the case of `CN(C)CCn1nnnc1SCC1=C(C(=O)O)N2C(=O)[C@@H](NC(=O)Cc3csc(N)n3)[C@H]2SC1` [CEFOTIAM], the AC50 (in [1]; on D(1A) dopamine receptor; in [2]; in assay [3]; in [4]; at Histamine H3 receptor) was greater than 30 µM throughout. Further, the AC50 in assay [5], in [6], in assay [7] and in [8] was greater than 30 µM throughout.

For `Cc1cc(C#N)cc(C)c1Oc1nc(Nc2ccc(C#N)cc2)nc(N)c1Br` [ETRAVIRINE], the AC50 was 14.4 µM in assay [1]; 4.53 µM at D(1A) dopamine receptor; greater than 30 µM in assay [2]; 22.6 µM in assay [3]; greater than 3 µM in assay [4]; greater than 30 µM at Histamine H3 receptor. For the same molecule, the AC50 in [5] was greater than 30 µM; in [6], greater than 30 µM; in assay [7], 20.4 µM; in assay [8], greater than 30 µM.
